Molecules are shown by their SMILES. A value given as a limit tells only on which side of the number the result lay.

Results on 34 compounds are retold here after US20260078122A1, “INDAZOLE COMPOUNDS AS PKMYT1 KINASE INHIBITORS” (Hoffmann-La Roche Inc., priority 2023, published 2026).

The target of the first data set is T1, recombinant human Myt1 (full length PKMYT1) (Homo sapiens, UniProt Q99640).
T1 sequence (Q99640 1-499): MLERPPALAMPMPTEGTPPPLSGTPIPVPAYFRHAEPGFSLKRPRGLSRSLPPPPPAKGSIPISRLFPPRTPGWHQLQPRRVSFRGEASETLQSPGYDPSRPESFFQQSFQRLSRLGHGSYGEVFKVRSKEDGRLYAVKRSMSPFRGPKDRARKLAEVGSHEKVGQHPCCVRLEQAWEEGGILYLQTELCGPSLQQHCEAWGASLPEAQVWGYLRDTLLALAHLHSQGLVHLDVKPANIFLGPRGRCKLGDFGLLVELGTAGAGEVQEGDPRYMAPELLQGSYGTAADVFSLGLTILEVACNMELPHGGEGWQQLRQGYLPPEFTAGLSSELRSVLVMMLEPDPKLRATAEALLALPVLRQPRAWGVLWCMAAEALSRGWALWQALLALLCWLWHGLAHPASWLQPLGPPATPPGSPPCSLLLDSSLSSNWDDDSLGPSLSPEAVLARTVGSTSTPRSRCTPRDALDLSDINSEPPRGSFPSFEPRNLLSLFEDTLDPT
Put plainly: ADP-Glo assay (Myt1 kinase activity).
Conditions: not given
In general terms: ADP-Glo turns the ADP formed in a reaction into a luminescent signal.
What is called IC50 is the point on the concentration scale where inhibition reaches its midpoint. `COc1nc(C2CC2)cc2[nH]c(=O)c(N)c(-c3ccc(F)c4[nH]ncc34)c12` [Example 169, 3-Amino-7-cyclopropyl-4-(7-fluoro-1H-indazol-4-yl)-5-methoxy-1H-1,6-naphthyridin-2-one]: the IC50 worked out at 13.4 nM. `COc1ncc(F)c2[nH]c(=O)c(N)c(-c3ccc(F)c4[nH]ncc34)c12` [Example 170, 3-amino-8-fluoro-4-(7-fluoro-1H-indazol-4-yl)-5-methoxy-1H-1,6-naphthyridin-2-one]: the IC50 worked out at 12.6 nM. Take `COc1ncc(Cl)c2[nH]c(=O)c(N)c(-c3ccc(F)c4[nH]ncc34)c12` [Example 171, 3-Amino-8-chloro-4-(7-fluoro-1H-indazol-4-yl)-5-methoxy-1H-1,6-naphthyridin-2-one]: the IC50 is 15.8 nM. For the compound `COc1c(C)nc(C)c2[nH]c(=O)c(N)c(-c3ccc(F)c4[nH]ncc34)c12` [Example 174, 3-Amino-4-(7-fluoro-1H-indazol-4-yl)-5-methoxy-6,8-dimethyl-1H-1,7-naphthyridin-2-one], the IC50 turned out to be 12.7 nM. Take `Cc1nc(Cl)cc2c(-c3ccc(F)c4[nH]ncc34)c(N)c(=O)[nH]c12` [Example 175, 3-Amino-6-chloro-4-(7-fluoro-1H-indazol-4-yl)-8-methyl-1H-1,7-naphthyridin-2-one]: the IC50 is less than 10 nM. Still for that read-out and setting: the result for `Cc1ncc(Cl)c2c(-c3ccc(F)c4[nH]ncc34)c(N)c(=O)[nH]c12` [Example 176, 3-Amino-5-chloro-4-(7-fluoro-1H-indazol-4-yl)-8-methyl-1H-1,7-naphthyridin-2-one] reads 14.3 nM.

Regarding `Cc1ncc(C)c2c(-c3ccc(F)c4[nH]ncc34)c(N)c(=O)[nH]c12` [Example 177, 3-Amino-4-(7-fluoro-1H-indazol-4-yl)-5,8-dimethyl-1H-1,7-naphthyridin-2-one], the IC50 came to 13.9 nM. For the compound `CCc1cnc(C)c2[nH]c(=O)c(N)c(-c3ccc(F)c4[nH]ncc34)c12` [Example 178, 3-Amino-5-ethyl-4-(7-fluoro-1H-indazol-4-yl)-8-methyl-1H-1,7-naphthyridin-2-one], the IC50 was 18.1 nM. The same measure, in the same setting: next, `Cc1ncc(F)c2c(-c3ccc(F)c4[nH]ncc34)c(N)c(=O)[nH]c12` [Example 179, 3-Amino-5-fluoro-4-(7-fluoro-1H-indazol-4-yl)-8-methyl-1H-1,7-naphthyridin-2-one]: 12.5 nM. Still for that read-out and setting: the result for `Nc1c(-c2ccc(F)c3[nH]ncc23)c2c(OCc3ccccc3)cnc(Cl)c2[nH]c1=O` [Example 180, 3-Amino-5-benzyloxy-8-chloro-4-(7-fluoro-1H-indazol-4-yl)-1H-1,7-naphthyridin-2-one] reads 22.6 nM; that for `Cc1ncc(OCc2ccccc2)c2c(-c3ccc(F)c4[nH]ncc34)c(N)c(=O)[nH]c12` [Example 181, 3-Amino-5-benzyloxy-4-(7-fluoro-1H-indazol-4-yl)-8-methyl-1H-1,7-naphthyridin-2-one], 20 nM; that for `Cc1ncc(OCC(F)F)c2c(-c3ccc(F)c4[nH]ncc34)c(N)c(=O)[nH]c12` [Example 186, 3-Amino-5-(2,2-difluoroethoxy)-4-(7-fluoro-1H-indazol-4-yl)-8-methyl-1H-1,7-naphthyridin-2-one], 15.8 nM. Same read-out and setting: next, `Cc1ncc(OC2CC2)c2c(-c3ccc(F)c4[nH]ncc34)c(N)c(=O)[nH]c12` [Example 187, 3-Amino-5-(cyclopropoxy)-4-(7-fluoro-1H-indazol-4-yl)-8-methy-1H-1,7-naphthyridin-2-one]: 10.8 nM; `Cc1ncc(OCCC(F)F)c2c(-c3ccc(F)c4[nH]ncc34)c(N)c(=O)[nH]c12` [Example 188, 3-Amino-5-(3,3-difluoropropoxy)-4-(7-fluoro-1H-indazol-4-yl)-8-methyl-1H-1,7-naphthyridin-2-one]: 15 nM; `Cc1ncc(OC2CCC2)c2c(-c3ccc(F)c4[nH]ncc34)c(N)c(=O)[nH]c12` [Example 189, 3-Amino-5-(cyclobutoxy)-4-(7-fluoro-1H-indazol-4-yl)-8-methyl-1H-1,7-naphthyridin-2-one]: 10.6 nM.

As to `CCCOc1cnc(C)c2[nH]c(=O)c(N)c(-c3ccc(F)c4[nH]ncc34)c12` [Example 190, 3-Amino-4-(7-fluoro-1H-indazol-4-yl)-8-methyl-5-propoxy-1H-1,7-naphthyridin-2-one], the IC50 was determined as 15.3 nM.

Take `Cc1ncc(OCC2CC2)c2c(-c3ccc(F)c4[nH]ncc34)c(N)c(=O)[nH]c12` [Example 191, 3-Amino-5-(cyclopropylmethoxy)-4-(7-fluoro-1H-indazol-4-yl)-8-methyl-1H-1,7-naphthyridin-2-one]: the half-inhibitory concentration (IC50) was determined as 15.7 nM. With `Cc1ncc(OC(F)(F)F)c2c(-c3ccc(F)c4[nH]ncc34)c(N)c(=O)[nH]c12` [Example 192, 3-Amino-4-(7-fluoro-1H-indazol-4-yl)-8-methyl-5-(trifluoromethoxy)-1H-1,7-naphthyridin-2-one], the IC50 was less than 10 nM.

Consider `COCc1cnc(C)c2[nH]c(=O)c(N)c(-c3ccc(F)c4[nH]ncc34)c12` [Example 193, 3-Amino-4-(7-fluoro-1H-indazol-4-yl)-5-(methoxymethyl)-8-methyl-1H-1,7-naphthyridin-2-one], for which the IC50 was 33.3 nM.

Tested on in another data set: not listed separately
Nature of the data set: Human microsome stability assay. Particulars: 1 μM compound, 0.5 mg/mL liver microsomal protein, 1 mM NADPH, 37° C., 0-30 minutes. In general terms: Microsomes from liver hold many membrane-bound enzymes, among them those of drug oxidation.
With `Nc1c(-c2ccc(F)c3[nH]ncc23)c2ncc(F)cc2[nH]c1=O` [Example 004, 3-Amino-7-fluoro-4-(7-fluoro-1H-indazol-4-y1)-1H-1,5-naphthyridin-2-one], the “Clearance of Human microsome” value worked out at 6.15 mL/min/kg. For the compound `COc1cnc2c(-c3ccc(F)c4[nH]ncc34)c(N)c(=O)[nH]c2c1` [Example 006, 3-Amino-4-(7-fluoro-1H-indazol-4-yl)-7-methoxy-1H-1,5-naphthyridin-2-one], the “Clearance of Human microsome” value worked out at 6.15 mL/min/kg. For `Cn1cncc1-c1cnc2c(-c3ccc(F)c4[nH]ncc34)c(N)c(=O)[nH]c2c1` [Example 008, 3-Amino-4-(7-fluoro-1H-indazol-4-yl)-7-(3-methylimidazol-4-yl)-1H-1,5-naphthyridin-2-one], the “Clearance of Human microsome” value is 6.15 mL/min/kg. With `Nc1c(-c2ccc(F)c3[nH]ncc23)c2ncc(-c3ccn[nH]3)cc2[nH]c1=O` [Example 009, 3-Amino-4-(7-fluoro-1H-indazol-4-yl)-7-(1H-pyrazol-5-yl)-1H-1,5-naphthyridin-2-one], the “Clearance of Human microsome” value was found to be 6.15 mL/min/kg. The same measure, in the same setting: next, `Nc1c(-c2ccc(F)c3[nH]ncc23)c2ncc(-c3ccnnc3)cc2[nH]c1=O` [Example 012, 3-Amino-4-(7-fluoro-1H-indazol-4-yl)-7-pyridazin-4-yl-1H-1,5-naphthyridin-2-one]: 6.15 mL/min/kg; `Nc1c(-c2ccc(F)c3[nH]ncc23)c2ncc(-c3ccc(F)cn3)cc2[nH]c1=O` [Example 014, 3-Amino-4-(7-fluoro-1H-indazol-4-yl)-7-(5-fluoro-2-pyridyl)-1H-1,5-naphthyridin-2-one]: 6.15 mL/min/kg. On the same count and under the same terms, next, `Nc1c(-c2ccc(F)c3[nH]ncc23)c2ncc(-c3nccs3)cc2[nH]c1=O` [Example 016, 3-Amino-4-(7-fluoro-1H-indazol-4-yl)-7-thiazol-2-yl-1H-1,5-naphthyridin-2-one]: 8.06 mL/min/kg.

Turning to `Nc1c(-c2ccc(F)c3[nH]ncc23)c2ncc(N3CCOCC3)cc2[nH]c1=O` [Example 019, 3-Amino-4-(7-fluoro-1H-indazol-4-yl)-7-morpholino-1H-1,5-naphthyridin-2-one], the “Clearance of Human microsome” value came out at 6.15 mL/min/kg. On the same count and under the same terms, the result for `CC(C)(O)c1cnc2c(-c3ccc(F)c4[nH]ncc34)c(N)c(=O)[nH]c2c1` [Example 020, 3-Amino-4-(7-fluoro-1H-indazol-4-yl)-7-(1-hydroxy-1-methyl-ethyl)-1H-1,5-naphthyridin-2-one] reads 6.15 mL/min/kg; that for `Cc1cc2[nH]c(=O)c(N)c(-c3ccc(F)c4[nH]ncc34)c2nc1NC(C)C` [Example 023, 3-Amino-4-(7-fluoro-1H-indazol-4-yl)-6-(isopropylamino)-7-methyl-1H-1,5-naphthyridin-2-one], 8.58 mL/min/kg; that for `Cc1cnc2c(-c3cccc4[nH]ncc34)c(N)c(=O)[nH]c2c1` [Example 033, 3-Amino-4-(1H-indazol-4-yl)-7-methyl-1H-1,5-naphthyridin-2-one], 6.22 mL/min/kg. With `Nc1c(-c2cccc3[nH]ncc23)c2ncc(C3CC3)cc2[nH]c1=O` [Example 034, 3-Amino-7-cyclopropyl-4-(1H-indazol-4-yl)-1H-1,5-naphthyridin-2-one], the “Clearance of Human microsome” value is 6.15 mL/min/kg. Still for that read-out and setting: the result for `Nc1c(-c2cc(F)cc3[nH]ncc23)c2ncc(Cl)cc2[nH]c1=O` [Example 036, 3-Amino-7-chloro-4-(6-fluoro-1H-indazol-4-yl)-1H-1,5-naphthyridin-2-one] reads 6.15 mL/min/kg; that for `Cc1cc2[nH]c(=O)c(N)c(-c3ccc(F)c4[nH]ncc34)c2nc1N1CCNCC1` [Example 044, 3-Amino-4-(7-fluoro-1H-indazol-4-yl)-7-methyl-6-piperazin-1-yl-1H-1,5-naphthyridin-2-one], 6.15 mL/min/kg. `Nc1c(-c2ccc(F)c3[nH]ncc23)c2nccc(Cl)c2[nH]c1=O` [Example 050, 3-Amino-8-chloro-4-(7-fluoro-1H-indazol-4-yl)-1H-1,5-naphthyridin-2-one]: the “Clearance of Human microsome” value is reported as 6.15 mL/min/kg.
